From US20260015315A1, “AMINO LIPID COMPOUND, PREPARATION METHOD THEREFOR, COMPOSITION THEREOF AND APPLICATION THEREOF” (SHENZHEN SHENXIN BIOTECHNOLOGY CO., LTD., priority 2022, published 2026) come the findings set out here.

This assay has as its system BALB/c mice. Kind of assay: In vivo delivery of lipid nanoparticle encapsulating luciferase mRNA (Fluc mRNA), IVIS imaging. Particulars: for Total flux (fluorescence expression intensity): Fluc mRNA-LNP (amino lipid:DSPC:CHO-HP:PEG2000-DMG 48:10:40.5:1.5), whole body; for (Spleen/Total Flux) * 100% / Multiple of spleen delivery/total delivery (Spleen/Total Flux) to Compound 118: tail vein IV, BALB/c mice, 6 hours; for Multiple of spleen delivery/total delivery (Spleen/Total Flux) to Compound 118: relative to Compound 118. The protocol: The amino lipid compound of the present disclosure, a helper lipid, a structural lipid, and a PEG-lipid were separately dissolved in absolute ethanol to prepare respective solutions at concentrations of 20 mg/mL, 10 mg/mL, 20 mg/mL, and 25 mg/mL, respectively. The above four solutions were pipetted at a molar ratio of the amino lipid compound: DSPC:CHO-HP:PEG2000-DMG of 48:10:40.5:1.5, and mixed well to prepare an alcohol phase.
(2) Encapsulation: The water phase and the alcohol phase were injected into a microfluidic chip at a flow rate of water phase:alcohol phase=12 mL/min: 4 mL/min by using a microfluidic preparation instrument (MPE-L2), and encapsulation was carried out at a flow rate of water phase:alcohol phase=9 mL/min: 3 mL/min to obtain mRNA-encapsulating lipid nanoparticle (mRNA-LNP).
(3) Dialysis: The product of step (2) was loaded in a dialysis bag and placed in a Tris Buffer-8% sucrose solution for replacement to remove ingredients such as residual ethanol, unassembled lipids. Dialysis was conducted for 2 h with magnetic stirring at room temperature and under protection from light (dialysate was replaced every 1 hour).
(4) The product of step (3) was sterilized by passing through a 0.22 μm microporous membrane, and then packaged.
Lipid nanoparticle formulations encapsulating Flue mRNA were prepared, with a concentration of Flue mRNA of 0.2 μg/μL, a mass ratio of Flue mRNA to Lipid of 1:10, a particle size of 80-130 nm, and a encapsulation efficiency of 80% or higher.
• Animal preparation: Female BALB/c mice of 6-8 weeks old were selected and raised in an SPF grade breeding room. Animal testing was conducted in strict accordance with the guidelines of national health institutions and animal ethics requirements.
In vivo Delivery: prior to injection of the test LNP formulations, the LNP formulations were gently and repeatedly inverted to thoroughly mix the formulation samples. A corresponding amount of the formulation samples were aspirated with a 1 ml insulin syringe, and the LNP formulations were injected by tail vein injection (IV), with 3 mice in duplicate per formulation. Each mouse was injected with 75 μL of the luciferase mRNA (Flue mRNA)-encapsulating lipid nanoparticle formulation prepared in Experimental Example 1.
6 hours after injection of LNP formulations, mice were injected with 200 μL D-Luciferin luciferase developing substrate (Catalog No. 122799; Manufacturer: Perkin Elmer). After the substrate was injected, the mice were anesthetized by injection of 200 μl of 2.5% avertin, and the injection time of luciferase developing substrate was recorded.
The fluorescence expression intensity induced by the lipid nanoparticle encapsulating luciferase mRNA (Flue mRNA) with a representative amino lipid compound is shown in Table 4, with the amino lipid compound 118 as a control.

The mark [1] stands for this setting: 75 μL tail vein IV, female BALB/c mice, IVIS 6 hours after injection.
The mark [2] stands for this setting: Fluc mRNA-LNP, 75 μL tail vein IV, female BALB/c mice, IVIS 6 hours after injection.

For `CCCCCCC(CCCCCC)OC(=O)CCCCCCCCC(CCCCCCCCC(=O)OC(CCCCCC)CCCCCC)N(CCCN(C)C)C(=O)COCCCC` [compound 119], the “Total flux (fluorescence expression intensity)” value under setting [1] was 2.65E+07. In addition, under setting [2], the “Spleen (fluorescence expression intensity)” value was 6.80E+06. Under “Fluc mRNA-LNP”, the “(Spleen/Total Flux) * 100%” value worked out at 25.66% and the “Multiple of spleen delivery/total delivery (Spleen/Total Flux) to Compound 118” value (shortened to “Multiple … (Spleen/Total Flux) to Compound 118”) is reported as 22.51.

Turning to `CCCCCCC(CCCCCC)OC(=O)CCCCCCCCC(CCCCCCCCC(=O)OC(CCCCCC)CCCCCC)N(CCCN(C)C)C(=O)COCCCCC` [compound 120], under setting [1], the “Total flux (fluorescence expression intensity)” value is 3.48E+07. Under setting [2], the “Spleen (fluorescence expression intensity)” value worked out at 6.46E+06. Under “Fluc mRNA-LNP”, the “(Spleen/Total Flux) * 100%” value came out at 18.56% and the “Multiple … (Spleen/Total Flux) to Compound 118” value amounted to 16.28.

`CCCCCCOCC(=O)N(CCCN(C)C)C(CCCCCCCCC(=O)OC(CCCCCC)CCCCCC)CCCCCCCCC(=O)OC(CCCCCC)CCCCCC` [compound 121]: under setting [1], the “Total flux (fluorescence expression intensity)” value was determined as 3.07E+07. Moreover, the “Spleen (fluorescence expression intensity)” value under setting [2] came out at 7.14E+06. Besides, where the note is “Fluc mRNA-LNP”, the “(Spleen/Total Flux) * 100%” value is on record as 23.26% and the “Multiple … (Spleen/Total Flux) to Compound 118” value was found to be 20.40.

With `CCCCCCCOCC(=O)N(CCCN(C)C)C(CCCCCCCCC(=O)OC(CCCCCC)CCCCCC)CCCCCCCCC(=O)OC(CCCCCC)CCCCCC` [compound 122], the “Total flux (fluorescence expression intensity)” value under setting [1] is 3.56E+07. In addition, the “Spleen (fluorescence expression intensity)” value under setting [2] stood at 3.02E+06. For the setting “Fluc mRNA-LNP”, the “(Spleen/Total Flux) * 100%” value is 8.48% and the “Multiple … (Spleen/Total Flux) to Compound 118” value is 7.44.

As for `CCCCCCCCOCC(=O)N(CCCN(C)C)C(CCCCCCCCC(=O)OC(CCCCCC)CCCCCC)CCCCCCCCC(=O)OC(CCCCCC)CCCCCC` [compound 123], the “Total flux (fluorescence expression intensity)” value under setting [1] worked out at 5.95E+07. Moreover, the “Spleen (fluorescence expression intensity)” value under setting [2] worked out at 4.02E+06. Further, where the note is “Fluc mRNA-LNP”, the “(Spleen/Total Flux) * 100%” value came out at 6.76% and the “Multiple … (Spleen/Total Flux) to Compound 118” value is given as 5.93.

For the molecule `CCCCCCC(CCCCCC)OC(=O)CCCCCCCCC(CCCCCCCCC(=O)OC(CCCCCC)CCCCCC)N(CCCN(C)C)C(=O)CCOCCCC` [compound 124], under setting [1], the “Total flux (fluorescence expression intensity)” value is 3.45E+07. For the same molecule, the “Spleen (fluorescence expression intensity)” value under setting [2] was found to be 6.18E+06. Further, where the note is “Fluc mRNA-LNP”, the “(Spleen/Total Flux) * 100%” value is 17.91% and the “Multiple … (Spleen/Total Flux) to Compound 118” value was found to be 15.71.

Turning to `CCCCCCC(CCCCCC)OC(=O)CCCCCCCCC(CCCCCCCCC(=O)OC(CCCCCC)CCCCCC)N(CCCN(C)C)C(=O)CCOCCCCC` [compound 125], the “Total flux (fluorescence expression intensity)” value under setting [1] is on record as 5.40E+07. In addition, the “Spleen (fluorescence expression intensity)” value under setting [2] is on record as 2.72E+06. For the setting “Fluc mRNA-LNP”, the “(Spleen/Total Flux) * 100%” value amounted to 5.04% and the “Multiple … (Spleen/Total Flux) to Compound 118” value turned out to be 4.42.

Take `CCCCCCOCCC(=O)N(CCCN(C)C)C(CCCCCCCCC(=O)OC(CCCCCC)CCCCCC)CCCCCCCCC(=O)OC(CCCCCC)CCCCCC` [compound 126]: the “Total flux (fluorescence expression intensity)” value under setting [1] turned out to be 5.39E+07. Moreover, the “Spleen (fluorescence expression intensity)” value under setting [2] is 6.87E+06. For the same molecule, under “Fluc mRNA-LNP”, the “(Spleen/Total Flux) * 100%” value was found to be 12.75% and the “Multiple … (Spleen/Total Flux) to Compound 118” value came out at 11.18.

On to `CCCCCCCOCCC(=O)N(CCCN(C)C)C(CCCCCCCCC(=O)OC(CCCCCC)CCCCCC)CCCCCCCCC(=O)OC(CCCCCC)CCCCCC` [compound 127], for which the “Total flux (fluorescence expression intensity)” value under setting [1] worked out at 3.56E+07. The “Spleen (fluorescence expression intensity)” value under setting [2] was found to be 4.60E+06. Further, for the setting “Fluc mRNA-LNP”, the “(Spleen/Total Flux) * 100%” value stood at 12.92% and the “Multiple … (Spleen/Total Flux) to Compound 118” value is 11.33.

As to `CCCCCCCCOCCC(=O)N(CCCN(C)C)C(CCCCCCCCC(=O)OC(CCCCCC)CCCCCC)CCCCCCCCC(=O)OC(CCCCCC)CCCCCC` [compound 128], the “Total flux (fluorescence expression intensity)” value under setting [1] is reported as 5.62E+07. The “Spleen (fluorescence expression intensity)” value under setting [2] is listed as 3.01E+06. Where the note is “Fluc mRNA-LNP”, the “(Spleen/Total Flux) * 100%” value is listed as 5.36% and the “Multiple … (Spleen/Total Flux) to Compound 118” value stood at 4.70.

In the case of `CCCCCCC(CCCCCC)OC(=O)CCCCCCCCC(CCCCCCCCC(=O)OC(CCCCCC)CCCCCC)N(CCCN(C)C)C(=O)CCCOCCCC` [compound 129], the “Total flux (fluorescence expression intensity)” value under setting [1] is 3.53E+07. Besides, the “Spleen (fluorescence expression intensity)” value under setting [2] was determined as 1.33E+07. Where the note is “Fluc mRNA-LNP”, the “(Spleen/Total Flux) * 100%” value came to 37.68% and the “Multiple … (Spleen/Total Flux) to Compound 118” value stood at 33.05.

`CCCCCCCOCCCC(=O)N(CCCN(C)C)C(CCCCCCCCC(=O)OC(CCCCCC)CCCCCC)CCCCCCCCC(=O)OC(CCCCCC)CCCCCC` [compound 132]: the “Total flux (fluorescence expression intensity)” value under setting [1] was 2.70E+07. Under setting [2], the “Spleen (fluorescence expression intensity)” value is on record as 6.10E+06. Besides, where the note is “Fluc mRNA-LNP”, the “(Spleen/Total Flux) * 100%” value is reported as 22.59% and the “Multiple … (Spleen/Total Flux) to Compound 118” value came to 19.82.

Turning to `CCCCCCC(CCCCCC)OC(=O)CCCCCCCCC(CCCCCCCCC(=O)OC(CCCCCC)CCCCCC)N(CCN(C)C)C(=O)COCCCCC` [compound 145], under setting [1], the “Total flux (fluorescence expression intensity)” value is 1.21E+07. In addition, the “Spleen (fluorescence expression intensity)” value under setting [2] is recorded as 1.04E+05. Further, under “Fluc mRNA-LNP”, the “(Spleen/Total Flux) * 100%” value turned out to be 0.86% and the “Multiple … (Spleen/Total Flux) to Compound 118” value is recorded as 0.75.

Take `CCCCCCOCC(=O)N(CCN(C)C)C(CCCCCCCCC(=O)OC(CCCCCC)CCCCCC)CCCCCCCCC(=O)OC(CCCCCC)CCCCCC` [compound 146]: under setting [1], the “Total flux (fluorescence expression intensity)” value came to 1.37E+07. Moreover, under setting [2], the “Spleen (fluorescence expression intensity)” value worked out at 6.65E+04. In addition, under “Fluc mRNA-LNP”, the “(Spleen/Total Flux) * 100%” value was 0.49% and the “Multiple … (Spleen/Total Flux) to Compound 118” value came out at 0.43.

Turning to `CCCCCCCOCC(=O)N(CCN(C)C)C(CCCCCCCCC(=O)OC(CCCCCC)CCCCCC)CCCCCCCCC(=O)OC(CCCCCC)CCCCCC` [compound 147], the “Total flux (fluorescence expression intensity)” value under setting [1] was 4.97E+06. The “Spleen (fluorescence expression intensity)” value under setting [2] worked out at 1.13E+05. Under “Fluc mRNA-LNP”, the “(Spleen/Total Flux) * 100%” value is 2.27% and the “Multiple … (Spleen/Total Flux) to Compound 118” value came out at 1.99.

Turning to `CCCCCCCCOCC(=O)N(CCN(C)C)C(CCCCCCCCC(=O)OC(CCCCCC)CCCCCC)CCCCCCCCC(=O)OC(CCCCCC)CCCCCC` [compound 148], under setting [1], the “Total flux (fluorescence expression intensity)” value amounted to 4.45E+06. In addition, the “Spleen (fluorescence expression intensity)” value under setting [2] is given as 1.07E+05. Where the note is “Fluc mRNA-LNP”, the “(Spleen/Total Flux) * 100%” value is on record as 2.40% and the “Multiple … (Spleen/Total Flux) to Compound 118” value was determined as 2.11.

In the case of `CCCCCCC(CCCCCC)OC(=O)CCCCCCCCC(CCCCCCCCC(=O)OC(CCCCCC)CCCCCC)N(CCN(C)C)C(=O)CCOCCCC` [compound 149], the “Total flux (fluorescence expression intensity)” value under setting [1] worked out at 5.80E+06. Further, the “Spleen (fluorescence expression intensity)” value under setting [2] is 1.29E+05. Also, for the setting “Fluc mRNA-LNP”, the “(Spleen/Total Flux) * 100%” value is 2.22% and the “Multiple … (Spleen/Total Flux) to Compound 118” value was found to be 1.95.

For `CCCCCCC(CCCCCC)OC(=O)CCCCCCCCC(CCCCCCCCC(=O)OC(CCCCCC)CCCCCC)N(CCN(C)C)C(=O)CCOCCCCC` [compound 150], the “Total flux (fluorescence expression intensity)” value under setting [1] was determined as 2.06E+07. In addition, the “Liver (fluorescence expression intensity)” value (Fluc mRNA-LNP, 75 μL tail vein IV, female BALB/c mice, IVIS 6 hours after injection, liver) is listed as 5.51E+06. Further, under setting [2], the “Spleen (fluorescence expression intensity)” value was 2.27E+05. Also, under “Fluc mRNA-LNP”, the “(Spleen/Total Flux) * 100%” value came out at 1.10% and the “Multiple … (Spleen/Total Flux) to Compound 118” value came out at 0.97.
